The source of these data is patent publication US20210317092A1 (BAYER PHARMA AKTIENGESELLSCHAFT, priority 2016, published 2021).

For data set [1] the following is noted: cited from earlier work.
The conditions of data set [2]: cited from earlier work. This is another data set of the same source.
For data set [3] the following is noted: cited from earlier work. The source holds these as a separate data set.
Data set [4] has as its target T1, human Bradykinin B1 receptor (Homo sapiens, UniProt P46663).
T1 construct: host or cells: CHO-K1
T1 sequence (P46663 1-353): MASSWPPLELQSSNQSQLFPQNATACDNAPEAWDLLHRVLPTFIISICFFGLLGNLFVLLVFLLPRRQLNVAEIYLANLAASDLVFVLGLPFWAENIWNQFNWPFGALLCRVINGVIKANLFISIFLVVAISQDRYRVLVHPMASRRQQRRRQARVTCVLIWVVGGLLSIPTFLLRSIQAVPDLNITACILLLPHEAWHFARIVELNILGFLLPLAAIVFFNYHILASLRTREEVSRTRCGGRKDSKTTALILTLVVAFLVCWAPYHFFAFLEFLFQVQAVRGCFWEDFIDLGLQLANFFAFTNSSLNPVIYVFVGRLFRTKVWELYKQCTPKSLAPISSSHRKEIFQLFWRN
As to the kind of experiment: Calcium flux Assay (FLIPR) with recombinant CHO-K1 cells expressing human Bradykinin B1 receptor, in presence (hB1 IC50) or absence (hB1 free IC50) of 0.1% BSA. The data set is classed as cell-based. A general note: Calcium flux is commonly read through the fluorescence of an indicator in the cells.

Data set [5] deals with T2, native human Bradykinin B1 receptor (Homo sapiens, UniProt P46663).
T2 construct: which express native human Bradykinin B1 receptor after induction with human IL-10; Coriell Institute; host or cells: IMR-90 human foetal lung fibroblasts, cytokine-induced
T2 sequence (P46663 1-353): T1 sequence (P46663 1-353)
As to the kind of experiment: Calcium flux Assay (FLIPR) with human fibroblasts expressing Bradykinin B1 receptor (hB1 IMR-90). The data set is classed as cell-based. Particulars: IMR-90 human fibroblasts expressing native Bradykinin B1 receptor. Put shortly:
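IMR-90 human foetal lung fibroblasts induced with 0.35 ng/mL […] for 3 h, Fluo-4/AM-loaded, preincubated with compound (8 concentrations, triplicate) for 30 min at 28 °C, then challenged with Lys-(Des-Arg)-bradykinin at EC90. Ca2+ fluorescence was read at 538 nm; full inhibition set by 20 µM Lys-(Des-Arg-Leu)-bradykinin; IC50 derived.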

The next data set relates to IL-6 secretion. As to the kind of experiment: Inhibitory activity on Bradykinin B1 agonist-induced secretion of IL-6 in human IMR-90 cells. The data set is classed as cell-based. The settings on record: 30 min compound, stimulated with 0.1 μM Lys-[Des-Arg9]Bradykinin and 0.1 μM Sar-[D-Phe8]-des-Arg9-Bradykinin for 5 hours. From the text: (§1) Inhibitory activity on Bradykinin B1 agonist-induced secretion of IL-6 and IL-8 in human IMR-90 cells
(§2) The effect of the compound examples on secretion of the cytokine IL-6 and IL-8 has been investigated in the human foetal lung fibroblast IMR-90 cell line. Here the induction of the cytokine secretion was induced by the Bradykinin B1 agonists Lys-[Des-Arg9]Bradykinin (CAS 71800-36-7, Tocris Bioscience) and Sar-[D-Phe8]-des-Arg9-Bradykinin (CAS 126959-88-4, Tocris Bioscience) leading to the activation of the Bradykinin B1-driven signalling pathway. This effect is indicative for a strong anti-inflammatory mode of action in kinin driven inflammation.
(§3) IMR-90 cells were cultured in Eagle's Minimum Essential Medium (EMEM) containing 2 mM L-glutamine, 1 g/L glucose, 1.5 g/L NaHCO3, 1 mM sodium pyruvate and non-essential amino acids (ATCC, 30-2003™) supplemented with 10% FBS (Biochrom, S0615) and 50 U/mL Penicillin, 50 μg/mL Streptomycin (PAA, P11-010). The assay was performed in EMEM and a cell density of […] IMR-90 cells/96-well. The compound examples have been serial diluted in 100% DMSO and evaluated at 8 different concentrations within the range of 3 nM and 10 μM and a final DMSO concentration of 0.4%. The IMR-90 cells have been incubated with the respective concentration of the compound for 30 min. The enhanced secretion of IL-6 and IL-8 was induced by the stimulation of these cells with 0.1 μM Lys-[Des-Arg9]Bradykinin (Tocris, catalogue no. 3225) and 0.1 μM Sar-[D-Phe8]-des-Arg9-Bradykinin (Tocris, catalogue no. 3230) for 5 hours at 37° C. and 5% C02. Further, cells have been treated with Lys-[Des-Arg9]Bradykinin and Sar-[D-Phe8]-des-Arg9-Bradykinin as neutral control and with 0.1% DMSO as inhibitor control. The amount of IL-6 and IL-8 in the supernatant was determined using the Human Prolnflammatory Panel II (4-Plex) (MSD, K15025B) according to manufacturer's instruction. Briefly, supernatants were added onto assay plates and incubated at room temperature for 1-2 h with vigorous shaking at 600 rpm. Detection antibodies were then added onto the supernatants and incubated at room temperature for an additional 1-2 h with vigorous shaking at 600 rpm. Plates were washed three times with phosphate-buffered saline (PBS; 137 mM NaCl, 2.7 mM KCl, 6.5 mM Na2HPO4, 1.7 mM KH2P04) containing 0.05% Tween-20 (Bio-Rad, 161-0781) and electrochemiluminescence detected using the MSD Sector Imager 6000 plate reader. The cell viability was measured using the CellTiter-Glo Luminescent Assay (Promega, G7571) following the manufacturers protocol. Briefly, the CellTiter-Glo Reagent was diluted with PBS (1:1) and added directly to cells. After incubation and shaking for 10 minutes luminescent signal was measured which is proportional to the amount of ATP present.
(§4) The effect of the compound on the amount of secreted cytokine has been calculated as 100/(measured cytokine concentration of neutral control-measured cytokine concentration of inhibitor control)*(measured cytokine concentration of compound dose-measured cytokine concentration of inhibitor control). IC50 values are determined using 4-parameter-fit.
(§5) The compound examples were tested in triplicates per plate and the inhibitory activity was determined as the relation between neutral and inhibitor control in percent. IC50 values were calculated using the 4-parameter logistic model.

The test system of a further data set is IL-8 secretion. As to the kind of experiment: Inhibitory activity on Bradykinin B1 agonist-induced secretion of IL-8 in human IMR-90 cells. The data set is classed as cell-based. The settings on record: 30 min compound, stimulated with 0.1 μM Lys-[Des-Arg9]Bradykinin and 0.1 μM Sar-[D-Phe8]-des-Arg9-Bradykinin for 5 hours.
Excerpt: as §1, §2, §3, §4, §5

The conditions of data set [6]: due to metabolic tability; cited from earlier work.
Where [7] appears, read: in absence of 0.1% BSA, read-out: hB1 free IC50.
Setting [8] is: in presence of 0.1% BSA, read-out: hB1 IC50.

Read-outs that look alike come from different tables or passages of the source. Some results are limits rather than exact numbers.

Broadly, the IC50 is the concentration at which inhibition is half-maximal.

In the case of `C[C@@H]1CC[C@H](C)N1C(=O)c1ccc([C@@H](C)NC(=O)C2(NC(=O)c3cc(F)cc(C(F)(F)F)c3)CC2)c(F)c1`, the aqueous solubility result in data set [1] was “reasonable”. The “pharmacokinetic profile in rat” value in data set [2] is on record as “reasonable”. The human metabolic stability result in data set [3] is given as “poor”.

Take `O=C(Nc1ccc(-c2ccnc(C(F)(F)F)c2)c(-c2nnn[nH]2)c1)C1(c2ccc(OC(F)(F)F)cc2F)CC1` [Example 295, 1-[2-fluoro-4-(trifluoromethoxy)phenyl]-N-{3-(1H-tetrazol-5-yl)-4-[2-(trifluoromethyl)pyridin-4-yl]phenyl}cyclopro-panecarboxa-mide]: the IC50 in data set [4] (setting [7]) amounted to 24.1 nM; in data set [5], 33.8 nM.

In the case of `Cc1cncc(-c2ccc(NC(=O)C3(c4cccc(Cl)c4)CC3)cc2-c2nnn[nH]2)c1` [Example 326, 1-(3-chlorophenyl)-N-[4-(5-methylpyridin-3-yl)-3-(1H-tetrazol-5-yl)phenyl]cyclopro-panecarboxa-mide], the IC50 was determined as 20 nM in data set [4] (setting [7]), 22.3 nM in data set [4] (setting [8]) and 45.2 nM in data set [5].

As for `COc1cnccc1-c1ccc(NC(=O)C2(c3cccc(Cl)c3)CC2)cc1-c1nnn[nH]1` [Example 327, 1-(3-chlorophenyl)-N-[4-(3-methoxypyridin-4-yl)-3-(1H-tetrazol-5-yl)phenyl]cyclopro-panecarboxa-mide], the figures for the IC50 in data set [4] (setting [7]), in data set [4] (setting [8]) and in data set [5] were 71.2 nM, 70.9 nM and 164 nM, respectively.

As for `CCOc1ncc(-c2ccc(NC(=O)C3(c4cccc(Cl)c4)CC3)cc2-c2nnn[nH]2)cc1Cl` [Example 328, N-[4-(5-chloro-6-ethoxypyridin-3-yl)-3-(1H-tetrazol-5-yl)phenyl]-1-(3-chlorophenyl)cy-clopropanecarbox-amide], the IC50 in data set [4] (setting [7]) stood at 13.5 nM; in data set [4] (setting [8]) it was 77.9 nM; in data set [5], 127 nM.

`O=C(Nc1ccc(-c2ccc(N3CCOCC3)nc2)c(-c2nnn[nH]2)c1)C1(c2cccc(Cl)c2)CC1` [Example 329, 1-(3-chlorophenyl)-N-{4-[6-(morpholin-4-yl)pyridin-3-yl]-3-(1H-tetrazol-5-yl)phenyl}cyclopro-panecarboxa-mide]: the values for the concentration for half-maximal inhibition (IC50) in data set [4] (setting [7]), in data set [4] (setting [8]) and in data set [5] were 85 nM, 90.5 nM and 70.3 nM, respectively.

With `CCc1ccc(-c2ccc(NC(=O)C3(c4cccc(Cl)c4)CC3)cc2-c2nnn[nH]2)cn1` [Example 338, 1-(3-chlorophenyl)-N-[4-(6-ethylpyridin-3-yl)-3-(1H-tetrazol-5-yl)phenyl]cyclopro-panecarboxa-mide], the IC50 in data set [4] (setting [7]) is 8.98 nM; in data set [4] (setting [8]), 20.4 nM; in data set [5], 6.03 nM.

For `CC(C)(O)c1ccc(-c2ccc(NC(=O)C3(c4cccc(Cl)c4)CC3)cc2-c2nnn[nH]2)cn1` [Example 340, 1-(3-chlorophenyl)-N-{4-[6-(2-hydroxypropan-2-yl)pyridin-3-yl]-3-(1H-tetrazol-5-yl)phenyl}cyclopro-panecarboxa-mide], the IC50 in data set [4] (setting [7]) came to 265 nM; in data set [4] (setting [8]), 161 nM; in data set [5], 108 nM.

Take `CC(C)(O)Cc1ccc(-c2ccc(NC(=O)C3(c4cccc(Cl)c4)CC3)cc2-c2nnn[nH]2)cn1` [Example 343, 1-(3-Chlorophenyl)-N-{4-[6-(2-hydroxy-2-methylpropyl)pyridin-3-yl]-3-(1H-tetrazol-5-yl)phenyl}cyctopropanecarboxamide]: the values for the half-inhibitory concentration (IC50) in data set [4] (setting [7]), in data set [4] (setting [8]) and in data set [5] were 259 nM, 113 nM and 110 nM, respectively.

Turning to `CC(C)(C)c1ccn(-c2ccc(NC(=O)C3(c4ccc(C(F)(F)F)cc4F)CC3)cc2-c2nnn[nH]2)n1` [Example 380, N-[4-(3-tert-Butyl-1H-pyrazol-1-yl)-3-(1H-tetrazol-5-yl)phenyl]-1-[2-fluoro-4-(trifluoromethyl)phenyl]cyclopro-panecarboxamide], the IC50 was 30.8 nM in data set [4] (setting [7]), above 10000 nM in the data set on IL-6 secretion and 345 nM with IL-8 secretion.

Regarding `O=C(Nc1ccc(-n2ccc(CC(F)(F)F)n2)c(-c2nnn[nH]2)c1)C1(c2ccc(C(F)(F)F)cc2F)CC1` [Example 389, 1-[2-fluoro-4-(trifluoromethyl)phenyl]-N-{3-(1H-tetrazol-5-yl)-4-[3-(2,2,2-trifluoroethyl)-1H-pyrazol-1-yl]phenyl}cyclo-propanecarboxa-mide], the concentration for half-maximal inhibition (IC50) in data set [4] (setting [7]) was determined as 11 nM; in the data set on IL-6 secretion, 253 nM; with IL-8 secretion, 258 nM.

Consider `CC(C)(C)c1cn(-c2ccc(NC(=O)C3(c4ccc(OC(F)(F)F)cc4F)CC3)cc2-c2nnn[nH]2)cn1` [Example 404, N-[4-(4-tert-butyl-1H-imidazol-1-yl)-3-(1H-tetrazol-5-yl)phenyl]-1-[2-fluoro-4-(trifluoromethoxy)phenyl]cyclo-propanecarboxa-mide], for which the 50% inhibitory concentration (IC50) worked out at 6.36 nM in data set [4] (setting [7]), 69 nM with IL-6 secretion and 59 nM with IL-8 secretion.

Take `C[C@@H](NC(=O)C1(NC(=O)C(F)(F)F)CC1)c1ccc(-c2cccc(Cl)c2C(=O)O)cc1F` [MK-0686]: in data set [6], the pharmacokinetic profile entry is “suboptimal”.

For the compound “N-[4-(6- ethoxypyridin-3- yl)-3-(1H- tetrazol-5- yl)phenyl]-1-(4- ethylphenyl) cyclopropane- carboxamide [Example 69]”, the half-maximal inhibitory concentration (IC50) in data set [4] (setting [7]) amounted to 6.75 nM; in data set [4] (setting [8]), 30.9 nM; in data set [5] it was 16.2 nM.
